Assay results from patent publication US20210062160A1, “THERAPEUTIC AND IMMUNOMODULATORY BACTERIOPHAGE FORMULATIONS AND METHODS FOR MAKING AND USING THEM” (priority 2017, published 2021).

What was measured:
MDCK cells [1] = test: Inhibition of T4 phage transcytosis across MDCK monolayers by chemical inhibitors; format: cell-based, canine; settings: for Inhibitor transcytosis Median ± s.d.: T4 phages across MDCK pretreated 18 hrs: Brefeldin A 5 μgmL^−1, Wortmannin 100 nM, Bafilomycin 0.5 μM, Chloroquine 100 μM, W-7 100 μM, solvent 7.9 ± 3 × 10^4; for effect of inhibitor on phage transcytosis: T4 phages across inhibitor-treated MDCK cells vs solvent control
Method: All cells were seeded at a density of 0.5-1×10^6 cells per well and allowed to grow to confluency (3-5 days). For apical-to-basal transcytosis the apical wells were incubated in Hanks Buffered Salt Solution (HBSS) at pH 6.0 and basal cells in HBSS at pH 7.4 for two hours to mimic pH-dependent uptake (2). For basal-to-apical transcytosis the buffers were switched. Bacteriophages were applied with the HBBS pH 6.0 buffer, incubated with cells for two hours and phage from both apical and basal cell layers quantified by plating with bacterial host.
Permeation of phages throughout the eukaryotic cell. The mechanism of phage access to Eukaryotic cells remains ambiguous (22, 24, 29). […] Inhibition of phage transcytosis was reported as the percentage of phages transcytosed across inhibitor-treated cells, compared to cells treated with a solvent control (FIG. 3A and Table S3).
Before this invention, the mechanism of phage transcytosis across eukaryotic cells remained ambiguous, see e.g., Duerkop et al., 2013, Resident viruses and their interactions with the immune system, Nat Immunol 14:654-9; Merril, et al., 1996, Long-circulating bacteriophage as antibacterial agents, Proc Natl Acad Sci 93:3188-3192; Aronow, et al., 1964, Electron microscopy of in vitro endocytosis of T2 phage by cells from rabbit perioneal exudate, J Exp Med 120. […] Inhibition of phage transcytosis was reported as the percentage of phages transcytosed across inhibitor-treated cells compared to cells treated with a solvent control (FIG. 13).

MDCK cells [2] = test: Fluorescence-positive MDCK cells after treatment with labeled T4 phages; format: cell-based, canine; settings: n=1008, mean
Description: T4 phage were fluorescently labeled and visualized within MDCK cells (FIG. 4A-C).

| Compound | Inhibitor transcytosis Median ± s.d. (MDCK cells [1]) | effect of inhibitor on phage transcytosis (MDCK cells [1]) | phages transcytosed compared to a solvent control (MDCK cells [1]; T4 phages across inhibitor-treated MDCK cells) [%] | proportion of fluorescence-positive cells treated with BFA and labeled T4 phages (MDCK cells [2]) [%] |
| --- | --- | --- | --- | --- |
| CO/C1=C\C(C)=C\[C@@H](C)[C@@H](O)[C@@H](C)C/C(C)=C/C=C/[C@H](OC)[C@@H]([C@@H](C)[C@@H](O)[C@H](C)[C@@]2(O)C[C@@H](O)[C@H](C)[C@@H](C(C)C)O2)OC1=O [Bafilomycin] | 1 ± .19 × 10^5 | no significant treatment effects |  |  |
| C[C@H]1CCC/C=C/[C@@H]2C[C@H](O)C[C@H]2[C@H](O)/C=C/C(=O)O1 [Brefeldin A] | 2.3 ± 2.2 × 10^4 | significant but incomplete inhibition of transcytosis | 38.5 | 9.98 |
| CCN(CC)CCCC(C)Nc1ccnc2cc(Cl)ccc12 (centres unmarked) [Chloroquine] | 5.3 ± 2.7 × 10^4 | no significant treatment effects |  |  |
| NCCCCCCNS(=O)(=O)c1cccc2c(Cl)cccc12 [W-7] | 8.2 ± 1.1 × 10^4 | no significant treatment effects |  |  |
| COC[C@H]1OC(=O)c2coc3c2[C@@]1(C)C1=C(C3=O)[C@@H]2CCC(=O)[C@@]2(C)C[C@H]1OC(C)=O [Wortmannin] | 8.1 ± 2.9 × 10^4 |  |  |  |
